Earlier results in PubChem BioAssay AID1259409 (Chemical Carcinogenesis Research Information System (CCRIS), 2018).

System: rodent chemically induced tumor inhibition, incidence and multiplicity
Test: CCRIS tumor inhibitor studies
Conditions: Carcinogen: 2,2'-DIHYDROXY-DI-N-PROPYLNITROSAMINE, 53609-64-6, 13147-25-6, Carcinogen: 2,2'-DIHYDROXY-DI-N-PROPYLNITROSAMINE, 53609-64-6, 13147-25-6, Dose [Inhibitor]: 0, Route [Inhibitor]: ORAL, Species: RAT, Promoter: NONE USED; for tumour outcome (control, treated, inhibition, significance): N-ETHYL-N-HYDROXYETHYLNITROSAMINE, Dose [Carcinogen]: 1000 MG/KG BW DHPN TWICE

Structure (SMILES): O=P(O)(O)OC1C(OP(=O)(O)O)C(OP(=O)(O)O)C(OP(=O)(O)O)C(OP(=O)(O)O)C1OP(=O)(O)O (stereo not given)
- outcome (N-ETHYL-N-HYDROXYETHYL- NITROSAMINE, 3,2'-DIMETHYL-4-, N-ETHYL-N-HYDROXYETHYL- NITROSAMINE, 3,2'-DIMETHYL-4-, 2% IN DIET BEGINNING 1 WK POST LAST CARCINOGEN DOSE AND CONTINUING FOR 32 WK (STUDY DURATION: 36 WK), Strain/Sex: F344/MALE, Target Tissue: Type of Lesion: URINARY BLADDER: PAPILLOMA, Dose [Carcinogen]: 1000 MG/KG/ IP DHPN 2X, 1500 MG/KG/ GAV EHEN 2X AND 75 MG/KG SC DMAB 3X GIVEN OVER THE INITIAL 3 WK PERIOD AT 3-4 D INTE): 0/14 (0%), 6/12 (50%), p<0.01n
- tumour outcome (control, treated, inhibition, significance) (3,2'-DIMETHYL-1,4-, 3,2'-DIMETHYL-1,4-, 1% IN DIET FOR 4 WK BEGINNING 1 D PRIOR TO FIRST CARCINOGEN DOSE (STUDY DURATION: 36 WK), Strain/Sex: F344/MALE, Target Tissue: Type of Lesion: KIDNEY: ADENOMA, 1500 MG/KG EHEN TWICE, 75 MG/KG BW DMAB 3 TIMES, SEQUENTIALLY OVER 3 WK): 6/10 (60%), 6/14 (43%), 28%, not significant
- tumour outcome (control, treated, inhibition, significance) (3,2'-DIMETHYL-1,4-, 3,2'-DIMETHYL-1,4-, 1% IN DIET FOR 4 WK BEGINNING 1 D PRIOR TO FIRST CARCINOGEN DOSE (STUDY DURATION: 36 WK), Strain/Sex: F344/MALE, Target Tissue: Type of Lesion: LUNG: ADENOMA, 1500 MG/KG EHEN TWICE, 75 MG/KG BW DMAB 3 TIMES, SEQUENTIALLY OVER 3 WK): 5/10 (50%), 9/14 (64%), -28%, not significant
- tumour outcome (control, treated, inhibition, significance) (3,2'-DIMETHYL-4-AMINO-, 3,2'-DIMETHYL-4-AMINO-, 2% IN DIET FOR 32 WK BEGINNING 1 WK POST CARCINOGEN TREATMENT (STUDY DURATION: 36 WK0, Strain/Sex: F344/MALE, Target Tissue: Type of Lesion: KIDNEY: NEPHROBLASTOMA, 1500 MG/KG BW EHEN TWICE, 75 MG/KG BW 3 TIMES ADMINISTERED OVER FIRST 3 WK): 2/14 (14%), 3/12 (25%), -79%, not significant
- tumour outcome (control, treated, inhibition, significance) (3,2'-DIMETHYL-4-AMINO-, 3,2'-DIMETHYL-4-AMINO-, 2% IN DIET FOR 32 WK BEGINNING 1 WK POST CARCINOGEN TREATMENT (STUDY DURATION: 36 WK), Strain/Sex: F244/MALE, Target Tissue: Type of Lesion: THYROID GLAND: CARCINOMA, 1500 MG/KG BW EHEN TWICE, 75 MG/KG BW 3 TIMES ADMINISTERED OVER FIRST 3 WK): 3/14 (21%), 2/12 (17%), 19%, not significant
- tumour outcome (control, treated, inhibition, significance) (3,2'-DIMETHYL-4-AMINO-, 3,2'-DIMETHYL-4-AMINO-, 2% IN DIET FOR 32 WK BEGINNING 1 WK POST CARCINOGEN TREATMENT (STUDY DURATION: 36 WK), Strain/Sex: F344/MALE, Target Tissue: Type of Lesion: KIDNEY: ADENOMA, 1500 MG/KG BW EHEN TWICE, 75 MG/KG BW 3 TIMES ADMINISTERED OVER FIRST 3 WK): 6/14 (43%), 7/12 (58%), -35%, not significant
- tumour outcome (control, treated, inhibition, significance) (3,2'-DIMETHYL-4-AMINO-, 3,2'-DIMETHYL-4-AMINO-, 2% IN DIET FOR 32 WK BEGINNING 1 WK POST CARCINOGEN TREATMENT (STUDY DURATION: 36 WK), Strain/Sex: F344/MALE, Target Tissue: Type of Lesion: KIDNEY: TRANSITIONAL CELL CARCINOMA, 1500 MG/KG BW EHEN TWICE, 75 MG/KG BW 3 TIMES ADMINISTERED OVER FIRST 3 WK): 1/14 (7%), 2/12 (17%), -143%, not significant
- tumour outcome (control, treated, inhibition, significance) (3,2'-DIMETHYL-4-AMINO-, 3,2'-DIMETHYL-4-AMINO-, 2% IN DIET FOR 32 WK BEGINNING 1 WK POST CARCINOGEN TREATMENT (STUDY DURATION: 36 WK), Strain/Sex: F344/MALE, Target Tissue: Type of Lesion: LARGE INTESTINE: CARCINOMA, 1500 MG/KG BW EHEN TWICE, 75 MG/KG BW 3 TIMES ADMINISTERED OVER FIRST 3 WK): 3/14 (21%), 4/12 (33%), -57%, not significant
- tumour outcome (control, treated, inhibition, significance) (3,2'-DIMETHYL-4-AMINO-, 3,2'-DIMETHYL-4-AMINO-, 2% IN DIET FOR 32 WK BEGINNING 1 WK POST CARCINOGEN TREATMENT (STUDY DURATION: 36 WK), Strain/Sex: F344/MALE, Target Tissue: Type of Lesion: LIVER: HEPATOCELLULAR CARCINOMA, 15OO MG/KG BW EHEN TWICE, 75 MG/KG BW 3 TIMES ADMINISTERED OVER FIRST 3 WK): 6/14 (43%), 1/12 (8%), 81%, not significant
- tumour outcome (control, treated, inhibition, significance) (3,2'-DIMETHYL-4-AMINO-, 3,2'-DIMETHYL-4-AMINO-, 2% IN DIET FOR 32 WK BEGINNING 1 WK POST CARCINOGEN TREATMENT (STUDY DURATION: 36 WK), Strain/Sex: F344/MALE, Target Tissue: Type of Lesion: LUNG: ADENOMA, 1500 MG/KG BW EHEN TWICE, 75 MG/KG BW 3 TIMES ADMINISTERED OVER FIRST 3 WK): 7/14 (50%), 9/12 (75%), -50%, not significant
